Source: patent publication US6660255B1, “Inhibition of gene transcription by polyamide DNA-binding ligands” (California Institute of Technology, priority 1997, dated 2003)

Assays:
[1] = target: 5′-AGGTCT-3′ adjacent to the TATA box of the CMV MIEP; assay: Binding to the CMV MIEP next to the TATA element; parameters: species or system human cytomegalovirus; settings: read-out: apparent dissociation constant
Source text: (§1) This method is a useful general approach for modulation of gene expression. For example, specific polyamides have been designed and synthesized that bind to double stranded DNA adjacent to the TATA element of the human cytomegalovirus major immediate early promoter (CMV MIEP). Polyamide CMV-1, ImImPyPy-γ-ImPyPyPy-β-Dp, binds the identified target sequence 5′-AGGTCT-3′, where the last T of this sequence is the 5′ T of the TATA element.

[2] = tested on: TBP binding and basal transcription at the CMV MIEP; assay: TBP binding and basal transcription, CMV MIEP; assay type: biochemical, human cytomegalovirus
Source text: as §1

[3] = tested on: 5′-TGTTACA-3′; assay: Quantitative DNase I footprint titration, pJT2B2 fragment; assay type: binding
[4] = tested on: LEF-1 DBD; assay: footprint; settings: 10 mM Hepes pH 7.5, 100 mM KCl
[5] = tested on: 5′-WGWWWCW-3′ target sequence; settings: hairpin conformation; Trauger et al. 1996; cited from earlier work
[6] = tested on: TFIIIA; assay: footprint; settings: DNase I; binding inhibited >90% by 5 nM polyamide ImPyPyPy-γ-ImPyPyPy-β-Dp
[7] = target: 5′AGAATGA-3′ in the human Her-2/neu promoter; assay: Binding downstream of the Her-2/neu TATA element; settings: read-out: apparent dissociation constant
Source text: (§2) In another example, a polyamide was designed to bind immediately downstream of the TATA element found in the human Her-2/neu breast cancer oncogene promoter. […] Her-2/neu is recognized to be over-expressed in several cancers, including human gynecologic adenocarcinomas, including those of the ovary, endometrium, breast, fallopian tube and cervix (Cirisano, F. D., & Karlan, B. Y., J. Soc. Gynecol. Investig. 3 99-105 (1996)).

[8] = tested on: TBP binding and transcription at the Her-2/neu promoter; assay: TBP binding and transcription, Her-2/neu promoter; assay type: biochemical, human
Source text: as §2

[9] = target: TBP (rhTBP) (Homo sapiens, UniProt P20226 P20226:1-339); assay: EMSA; not inhibited by HIV-1 polyamide; settings: tags: Promega; label: 32P
[10] = target: HIV-1 TATA element; assay: TBP binding to the HIV-1 TATA element
Protocol: TBP binds the HIV-1 TATA element with a Kd of ˜1-3 nM.

ImImPyPy-γ-ImPyPyPy-β-Dp [CMV-1]
Kd [1]: 1 nM | inhibition of TBP binding and basal transcription [2]: effective inhibitor

CN(C)CCCNC(=O)CCNC(=O)c1cc(NC(=O)c2cc(NC(=O)CCNC(=O)c3cc(NC(=O)c4nc(NC(=O)CCCNC(=O)c5cc(NC(=O)c6cc(NC(=O)CCNC(=O)c7cc(NC(=O)c8nccn8C)cn7C)cn6C)cn5C)cn4C)cn3C)cn2C)cn1C [polyamide 6, ImPy-β-PyPy-γ-ImPy-β-PyPy-β-Dp]
Equilibrium association constants, 5′-aTGTTACAt-3′ ([3]; 24° C., pH 7.0, 10 mM Tris.HCl, 10 mM KCl, 10 mM MgCl2, 5 mM CaCl2, mean (SD)): greater than 1×10^9 M^−1 | fold higher affinity relative to unlinked analog ([3]; polyamide 6 vs 9, polyamide 3 vs 7): ~1000 fold

HIV-1 enhancer LEF-1 site L1
Kd ([4]; 1 mM MgCl2, 1 mM DTT, 1.5 nM stated in p144): 1.4 nM

HIV-1 LEF-1 site L3
Kd ([4]; 1 mM MgCl2): 4.9 nM

ImPyPyPyPy-γ-ImPyPyPyPy-β-Dp [polyamide 3]
affinity for seven base pair target sequence [5]: subnanomolar

5S RNA gene internal control region
Kd [6]: 1 nM

HIV-1 LEF-1 site L2
Kd ([4]; 1 mM MgCl2): 5.8 nM

ImPy-β-PyIm-γ-PyPy-β-PyPy-β-Dp [Her2-1]
Kd [7]: 0.02 nM | inhibition of TBP binding and transcription [8]: effective inhibitor

B1: AdML TATA region oligo (dsDNA)
DNA 1: GATCGGGGGCTATAAAAGGGGGTGGG
DNA 2: CCCACCCCCTTTTATAGCCCCCGATC
binding result [9]: binds

B2: TBP: TATA-box binding protein, recombinant human TBP (protein, UniProt P20226 1-339, looked up)
TATA-box-binding protein: MDQNNSLPPYAQGLASPQGAMTPGIPIFSPMMPYGTGLTPQPIQNTNSLSILEEQQRQQQQQQQQQQQQQQQQQQQQQQQQQQQQQQQQQQQQQQAVAAAAVQQSTSQQATQGTSGQAPQLFHSQTLTTAPLPGTTPLYPSPMTPMTPITPATPASESSGIVPQLQNIVSTVNLGCKLDLKTIALRARNAEYNPKRFAAVIMRIREPRTTALIFSSGKMVCTGAKSEEQSRLAARKYARVVQKLGFPAKFLDFKIQNMVGSCDVKFPIRLEGLVLTHQQFSSYEPELFPGLIYRMIKPRIVLLIFVSGKVVLTGAKVRAEIYEAFENIYPILKGFRKTT
Kd [10]: 1 to 3 nM
